# Results reported in ChEMBL document CHEMBL1134113, “Selective inhibition of Src SH2 by a novel thiol-targeting tricarbonyl-modified inhibitor and mechanistic analysis by (1)H/(13)C NMR spectroscopy” (Bioorg Med Chem Lett, 2001).
# pIC50: −log10 of the molar value. Activity calls are given as the source filed them. The calls are words filed in the database; no cut-off is given here.
# Assays:
# [1] = biological target: Proto-oncogene tyrosine-protein kinase Src (Homo sapiens, UniProt P12931, C188A); test: (§1) Binding affinity for Cys188Ala Src SH2 domain mutant using BIAcore binding assay
# [2] = biological target: T1, Proto-oncogene tyrosine-protein kinase Src (Homo sapiens, UniProt P12931); test: Selectivity for Src SH2 domain compared to Cys188Ala Src SH2 domain mutants
# [3] = biological target: T1, Proto-oncogene tyrosine-protein kinase Src; test: Binding affinity for wild type Src SH2 domain using BIAcore binding assay
# [4] = test system: Proto-oncogene tyrosine-protein kinase Src (Homo sapiens), P12931 [C188A]; test: as §1; conditions: concentration not given here
Compound,pIC50 [1],Selectivity [2],pIC50 [3],inhibition [4]
CC[C@H](C)[C@H](NC(=O)[C@H](CCC(=O)O)NC(=O)[C@H](CCC(=O)O)NC(=O)CCc1cccc(C(=O)C(O)(O)C(=O)OC)c1)C(N)=O,< 3.00,Active,4.74,
CC[C@H](C)[C@H](NC(=O)[C@H](CCC(=O)O)NC(=O)[C@H](CCC(=O)O)NC(=O)[C@@H](N)Cc1ccc(OP(=O)(O)O)cc1)C(=O)O,5.88,,5.92,
CC[C@H](C)[C@H](NC(=O)[C@H](CCC(=O)O)NC(=O)[C@H](CCC(=O)O)NC(=O)C(Cc1ccc(C(=O)C(=O)C(=O)OC)cc1)NC(C)=O)C(N)=O (stereo not given in full),< 3.00,Active,5.64,
COC(=O)C(O)(O)C(=O)c1ccccc1,< 3.00,Active,4.00,
CC[C@H](C)[C@H](NC(=O)[C@H](CCC(=O)O)NC(=O)[C@H](CCC(=O)O)NC(=O)CCc1cccc(C(=O)O)c1)C(N)=O,,inactive,3.60,15%

# Results, then the molecule that gave them:
pIC50 [1],Selectivity [2],pIC50 [3],inhibition [4],Compound
< 3.00,Active,4.70,,CC[C@H](C)[C@H](NC(=O)[C@H](CCC(=O)O)NC(=O)[C@H](CCC(=O)O)NC(=O)CCc1ccc(C(=O)C(O)(O)C(=O)OC)cc1)C(N)=O
< 3.00,Active,5.07,,COC(=O)C(=O)C(=O)c1ccc(CC(NC(C)=O)C(=O)N[C@@H](CCC(=O)O)C(=O)N[C@H](C(=O)N[C@@H](CC(C)C)C(N)=O)[C@@H](C)O)cc1 (stereo not given in full)
